Experimental findings from ChEMBL document CHEMBL5344406, “1,2,3-Triazole-containing hybrids with potential antibacterial activity against ESKAPE pathogens” (2022) are described below.

Values after ≈ are worked out from the molar mass of the structure shown.

Holding throughout (format): functional
The test system of test [1] is Staphylococcus epidermidis. Kind of test: Antibacterial activity against methicillin-sensitive Staphylococcus epidermidis assessed as bacterial growth inhibition.
The subject of test [2] is Escherichia coli. Briefly: Antibacterial activity against Escherichia coli assessed as bacterial growth inhibition.
Test [3] concerns Escherichia coli. Kind of test: Antibacterial activity against Escherichia coli producing extended spectrum beta-lactamases assessed as bacterial growth inhibition.
A further test deals with Klebsiella aerogenes. Briefly: Antibacterial activity against Enterobacter aerogenes assessed as bacterial growth inhibition.
In another test the test system is Enterococcus faecium. Briefly: Antibacterial activity against Enterococcus faecium assessed as bacterial growth inhibition.
The test system of test [4] is Staphylococcus aureus. Briefly: Antibacterial activity against methicillin-sensitive Staphylococcus aureus assessed as bacterial growth inhibition.
Another test relates to Proteus vulgaris. Kind of test: Antibacterial activity against Proteus vulgaris assessed as bacterial growth inhibition.
Another test relates to Enterobacter cloacae. Kind of test: Antibacterial activity against Enterobacter cloacae assessed as bacterial growth inhibition.
Another test relates to Enterococcus faecalis. Briefly: Antibacterial activity against Enterococcus faecalis assessed as bacterial growth inhibition.
Test [5] concerns Klebsiella pneumoniae. Kind of test: Antibacterial activity against Klebsiella pneumoniae assessed as bacterial growth inhibition.
The subject of test [6] is Klebsiella pneumoniae. Briefly: Antibacterial activity against Klebsiella pneumoniae producing extended spectrum beta-lactamases assessed as bacterial growth inhibition.
Test [7] concerns Pseudomonas aeruginosa. Kind of test: Antibacterial activity against Pseudomonas aeruginosa assessed as bacterial growth inhibition.
The next test concerns Providencia rettgeri. Briefly: Antibacterial activity against Providencia rettgeri assessed as bacterial growth inhibition.
In test [8] the test system is Klebsiella pneumoniae. Kind of test: Antibacterial activity against erythromycin-resistant Klebsiella pneumoniae ATCC 700603 assessed as bacterial growth inhibition by standard dilution assay.
The subject of test [9] is Staphylococcus aureus. Kind of test: Antibacterial activity against penicillin-resistant Staphylococcus aureus ATCC 31007 assessed as bacterial growth inhibition by standard dilution assay.
The test system of test [10] is Staphylococcus aureus. Briefly: Potency index, ratio of Clarithromycin MIC to test compound MIC for antibacterial activity against erythromycin-susceptible Staphylococcus aureus ATCC 25923 assessed as bacterial growth inhibition by standard dilution assay.
Test [11] relates to Staphylococcus aureus. Kind of test: Antibacterial activity against methicillin-resistant Staphylococcus aureus ATCC 43300 assessed as bacterial growth inhibition by standard dilution assay.
Test [12] has as its system Staphylococcus aureus. Kind of test: Antibacterial activity against erythromycin-susceptible Staphylococcus aureus ATCC 25923 assessed as bacterial growth inhibition by standard dilution assay.
Test [13] relates to Staphylococcus aureus. Kind of test: Potency index, ratio of Azithromycin MIC to test compound MIC for antibacterial activity against erythromycin-susceptible Staphylococcus aureus ATCC 25923 assessed as bacterial growth inhibition by standard dilution assay.
Test [14] deals with Staphylococcus aureus. Briefly: Antibacterial activity against erythromycin-resistant Staphylococcus aureus clinical isolate assessed as bacterial growth inhibition by standard dilution assay.
For test [15], the system named is Staphylococcus aureus. Briefly: Antibacterial activity against Staphylococcus aureus clinical isolate assessed as bacterial growth inhibition by disk diffusion method.
Test [16] deals with Klebsiella pneumoniae. Briefly: Antibacterial activity against Klebsiella pneumoniae clinical isolate assessed as bacterial growth inhibition by disk diffusion method. Background: Agar diffusion results depend on both activity and mobility in agar.
The subject of another test is Pseudomonas putida. Briefly: Antibacterial activity against Pseudomonas putida clinical isolate assessed as bacterial growth inhibition by disk diffusion method.
The subject of the next test is Serratia marcescens. Briefly: Antibacterial activity against Serratia marcescens clinical isolate assessed as bacterial growth inhibition by disk diffusion method.
Test [17] relates to Escherichia coli. Briefly: Antibacterial activity against Escherichia coli clinical isolate assessed as bacterial growth inhibition by disk diffusion method.
Test [18] relates to Escherichia coli. Briefly: Antibacterial activity against multidrug-resistant Escherichia coli assessed as bacterial growth inhibition incubated for 24 hrs by […] method.
Test [19] relates to Staphylococcus aureus. Briefly: Antibacterial activity against Staphylococcus aureus clinical isolate assessed as bacterial growth inhibition incubated for 24 hrs by disk diffusion method.
Test [20] relates to Escherichia coli. Kind of test: Antibacterial activity against Escherichia coli clinical isolate assessed as bacterial growth inhibition incubated for 24 hrs by disk diffusion method.
Test [21] has as its system Escherichia coli. Briefly: Antibacterial activity against Escherichia coli assessed as bacterial growth inhibition by broth microdilution method. For orientation: Broth dilution looks for growth in wells or tubes with falling amounts of substance.
In test [22] the test system is Klebsiella pneumoniae. Briefly: Antibacterial activity against Klebsiella pneumoniae assessed as bacterial growth inhibition by broth microdilution method.
For test [23], the system named is Staphylococcus aureus. Briefly: Antibacterial activity against Staphylococcus aureus assessed as bacterial growth inhibition by broth microdilution method.
Test [24] concerns Staphylococcus aureus. Briefly: Antibacterial activity against Staphylococcus aureus ATCC 43300 assessed as bacterial growth inhibition measured for 5 to 20 mins by broth dilution method. The settings on record: time 5-20 min.
Test [25] has as its system Pseudomonas aeruginosa. Kind of test: Antibacterial activity against Pseudomonas aeruginosa ATCC 10145 assessed as bacterial growth inhibition measured for 5 to 20 mins by broth dilution method. As to conditions: time 5-20 min.

`CO/N=C1\C(=O)N(Cc2cn(CC(=O)N3CCC[C@@H]4CN(c5c(F)cc6c(=O)c(C(=O)O)cn(C7CC7)c6c5OC)C[C@@H]43)nn2)c2ccc(C)cc21`: the MIC (in test [1]; in the test with Escherichia coli [2]; with Escherichia coli [3]; in the test with Klebsiella aerogenes; in the test with Enterococcus faecium; in the test on Staphylococcus aureus [4]) was ≤ 0.03 µg/mL throughout. Besides, the MIC with Proteus vulgaris, with Enterobacter cloacae, in the test with Enterococcus faecalis, with Klebsiella pneumoniae [5], with Klebsiella pneumoniae [6] and in the test on Pseudomonas aeruginosa [7] was ≤ 0.03 µg/mL throughout. The MIC in the test with Providencia rettgeri was ≤ 0.03 µg/mL.
In the case of `CCCCc1ccc(-c2cn(CC(=O)NNC(=O)O[C@H]3C[C@H](C)[C@@H](O[C@@H]4[C@H](C)[C@@H](O[C@H]5O[C@@H](C)C[C@@H](N(C)C)[C@@H]5O)[C@@](C)(O)C[C@@H](C)CN(C)[C@H](C)[C@H]5OC(=O)O[C@]5(C)[C@H](CC)OC(=O)[C@@H]4C)C[C@@]3(C)OC)nn2)cc1`, the MIC in the test on Klebsiella pneumoniae [8] is ≥ 128 µg/mL; with Staphylococcus aureus [9], 2 µg/mL (≈ 1.87 µM); in the test with Staphylococcus aureus [11] it was 2 µg/mL (≈ 1.87 µM); in the test on Staphylococcus aureus [12] it was 2 µg/mL (≈ 1.87 µM); in the test on Staphylococcus aureus [14], ≥ 128 µg/mL. The Ratio in the test on Staphylococcus aureus [10] and in the test with Staphylococcus aureus [13] was >32 in each case.
With `Cc1ccc(NC(=O)Cn2cc(Cn3c4ccccc4c(=O)c4cc(C)ccc43)nn2)cc1`, the MIC with Staphylococcus aureus [15], in the test with Klebsiella pneumoniae [16], in the test with Pseudomonas putida, with Serratia marcescens and with Escherichia coli [17] was 12.3 µg/mL (≈ 28.1 µM) in each case.
For `c1ccc(-n2cc(COc3ccc(-c4nc5ccccc5s4)cc3)nn2)cc1`, the MIC in the test with Escherichia coli [18] was 7.99 µg/mL (≈ 20.8 µM).
As to `Cc1ccc2c(c1)c(=O)c1ccccc1n2Cc1cn(-c2ccccc2C)nn1`, the MIC in the test with Staphylococcus aureus [19] and in the test with Escherichia coli [20] was 10.1 µg/mL (≈ 26.5 µM) in each case.
For `COC(=O)[C@H](Cc1cn(Cc2cn(-c3ccccc3[N+](=O)[O-])nn2)c2ccccc12)NC(=O)[C@@H](C)c1ccc2cc(OC)ccc2c1`, the MIC in the test on Escherichia coli [21], in the test on Klebsiella pneumoniae [22] and with Staphylococcus aureus [23] was 25 µg/mL (≈ 39.5 µM) throughout.
On to `COCCOCCOCCOC(=O)c1cccc(-n2cc(CO[C@@H]3O[C@H](COC(C)=O)[C@H](OC(C)=O)[C@H](OC(C)=O)[C@H]3OC(C)=O)nn2)c1`, for which the MIC with Staphylococcus aureus [24] and in the test on Pseudomonas aeruginosa [25] was 5 µg/mL (≈ 7.19 µM) each time.
With `CCO/N=C1\C(=O)N(Cc2cn(CC(=O)N3CCC[C@@H]4CN(c5c(F)cc6c(=O)c(C(=O)O)cn(C7CC7)c6c5OC)C[C@@H]43)nn2)c2ccccc21`, the MIC (in [1]; in the test with Escherichia coli [2]; in the test with Escherichia coli [3]; in the test on Klebsiella aerogenes; with Enterococcus faecium; with Staphylococcus aureus [4]) was ≤ 0.03 µg/mL each time. Also, the MIC with Proteus vulgaris, in the test with Enterobacter cloacae, in the test with Enterococcus faecalis, with Klebsiella pneumoniae [5], in the test with Klebsiella pneumoniae [6] and in the test on Pseudomonas aeruginosa [7] was ≤ 0.03 µg/mL throughout. Also, the MIC in the test with Providencia rettgeri is ≤ 0.03 µg/mL.
Turning to `CCCCCc1ccc(-c2cn(CC(=O)NNC(=O)O[C@H]3C[C@H](C)[C@@H](O[C@@H]4[C@H](C)[C@@H](O[C@H]5O[C@@H](C)C[C@@H](N(C)C)[C@@H]5O)[C@@](C)(O)C[C@@H](C)CN(C)[C@H](C)[C@H]5OC(=O)O[C@]5(C)[C@H](CC)OC(=O)[C@@H]4C)C[C@@]3(C)OC)nn2)cc1`, the MIC with Klebsiella pneumoniae [8] was ≥ 128 µg/mL; in the test on Staphylococcus aureus [9], 2 µg/mL (≈ 1.84 µM); in the test with Staphylococcus aureus [11], 2 µg/mL (≈ 1.84 µM); in the test on Staphylococcus aureus [12], 2 µg/mL (≈ 1.84 µM); with Staphylococcus aureus [14], ≥ 128 µg/mL. Also, the Ratio with Staphylococcus aureus [10] and in the test with Staphylococcus aureus [13] was >32 in each case.

The term MIC denotes the lowest concentration that inhibits growth of the organism.
